Assay results as given in patent publication US12479843B2, “Spiro ring-containing quinazoline compounds” (WIGEN BIOMEDICINE TECHNOLOGY (SHANGHAI) CO., LTD., priority 2019, dated 2025).
Read-outs that look alike come from different tables or passages of the source.

Key:
[1] = system: pERK level in H358 cells; assay: pERK and ERK protein content assay in H358 cells (ELISA); assay type: cell-based; details: 24 h, pERK/ERK ratio compared with DMSO group; for inhibition at 1 µM: Homo sapiens, NCI-H358, compound 1 μM, read-out: Inhibition rate (%) of pERK level; for Inhibition rate (%) of pERK level: compound 1 μM
Procedure, shortened: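 Percent inhibition of pERK relative to DMSO, from the ELISA pERK/ERK ratio in lysed H358 cells. Compound applied at 1 μM for 24 h after one day of growth.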

[2] = system: H358 cells; assay: Antiproliferative activity against H358 cells (Cell Titer Glow, ultra-low attachment plate); assay type: cell-based; details: three days after addition of compound
Experimental: 2500 H358 cells were seeded in a 96-well ultra-low attachment plate (corning, 7007). After one day of growth, a serially diluted compound (a maximum concentration of 5 μM, 5-fold dilution, a total of five doses) was added. Three days after the addition of the compound, Cell Titer Glow (Promega, G9681) was added to evaluate pellet growth, and the IC50 value was calculated.

[3] = Pharmacokinetic evaluation in mice; assay type: in vivo, male ICR mice; details: for Vd: read-out: Vss; for F: po 10 mg/kg vs iv 2 mg/kg
Experimental: The compounds were administered by intravenous injection at a dose of 2 mg/kg and oral gavage at a dose of 10 mg/kg (0.5% CMC-Na suspension). 15 male ICR mice were selected for each group, and each mouse was subjected to blood collection at 3 discrete time points, with 3 mice per time point. The time points of sampling were as follows: before the administration, and at 5 min, 15 min, 30 min, 1 h, 3 h, 5 h, 8 h, 12 h and 24 h after the administration. 80 μL of blood was collected from the eye sockets or the hearts of the mice at each of the time points after the administration. All whole blood samples were collected in tubes containing EDTA K2 and centrifuged (1500-1600 rmp) at 4° C. for 10 min to isolate plasma, which was then stored in a refrigerator at −90 to −60° C. for sample analysis. The compound concentration in the plasma was determined by liquid chromatography-tandem mass spectrometry, and the corresponding pharmacokinetic parameters were obtained according to a plasma concentration-time curve.

[4] = system: Human pancreatic cancer Mia PaCa-2 cells; assay: Antitumor activity on graft tumors of human pancreatic cancer Mia PaCa-2 in nude mice; assay type: in vivo; details: Mia PaCa-2 graft tumors in nude mice, 10 mg/kg intragastric, qd*21
Experimental: Human pancreatic cancer Mia PaCa-2 cells were cultured conventionally in 1640 medium containing 10% fetal bovine serum in a 37° C./5% CO2 incubator. After passage, the cells were collected when they reached the desired amount. 1×10^7 Mia PaCa-2 cells were injected into the left dorsal side of each nude mouse, and the animals were randomly grouped for administration after tumors grew to 150 mm3. The groups are as follows: 1) a solvent control group of 8 mice; and 2) compound 1 group, compound 2 group, compound 5 group, compound 31 group, compound 131 group, compound 142 group, compound 171 group, compound B group and compound C group, with 8 mice per group. Mice in the solvent control group were subjected to intragastric administration of 0.5% CMC-Na once daily; mice in compound 1 group, compound 2 group, compound 5 group, compound 31 group, compound 131 group, compound 142 group, compound 171 group, compound B group and compound C group were subjected to intragastric administration of a suspension of a compound in 0.5% CMC-Na once daily. On Tuesday and Thursday each week, tumor volumes and body weight of the mice were measured, and the nude mice were sacrificed on day 21 of administration.

[5] = system: phosphorylated ERK (pERK) level in H358 cells; assay: pERK level assay by western blot in H358 cells; assay type: cell-based; details: overnight incubation, same concentration, FIG. 1
Experimental: H358 cells were plated on to a 24-well plate at 2×10^5 cells/well. Serially diluted compounds including AMG510, MRTX849, compound 142 and compound 171 were added. After overnight incubation, cells were lysed, and proteins were quantified and subjected to gel electrophoresis.

[6] = Homo sapiens, NCI-H358, 72 h, 96-well ultra-low attachment plate, Cell Titer Glow
[7] = male, ICR, mouse, plasma, iv, 2 mg/kg
[8] = male, ICR, mouse, plasma, iv, 2 mg/kg, read-out: Cmax
[9] = male, ICR, mouse, plasma, iv, 2 mg/kg, read-out: Tmax
[10] = male, ICR, mouse, plasma, po, 10 mg/kg, 0.5% CMC-Na suspension
[11] = male, ICR, mouse, plasma, po, 10 mg/kg, 0.5% CMC-Na suspension, read-out: Cmax
[12] = male, ICR, mouse, plasma, po, 10 mg/kg, 0.5% CMC-Na suspension, read-out: Tmax
[13] = 96-well ultra-low attachment plate, Cell Titer Glow
[14] = po, 10 mg/kg, 0.5% CMC-Na suspension

Structure (SMILES)	IC50 [2, 6]	IC50 ([2]; Homo sapiens, NCI-H358, 72 h)	AUC(0-t) [3, 7]	clearance [3, 7]	half-life [3, 7]	Cmax [3, 8]	Tmax [3, 9]	Vd [3, 7]	AUC(0-t) [3, 10]	half-life [3, 10]	Cmax [3, 11]	Tmax [3, 12]	F [3]	inhibition at 1 µM [1]	Anti-tumor effect (regression) [4]	other results
C=CC(=O)N1CC2(CCN(c3nc(OC4CCN(CCOC)CC4)nc4c(OCC(F)(F)F)c(-c5c(C)ccc6[nH]ncc56)c(C5CC5)cc34)CC2)C1 [B, reference compound]	< 300 nM	4.6 nM	7820 ng·h/mL	4.2 mL/min/kg	4.47 h	2880 ng/mL	0.083 h	1.01 L/kg	10300 ng·h/mL	3.74 h	1300 ng/mL	2 h	26.5%	> 90%	25% regression	
C=C(F)C(=O)N1CC2(CCN(c3nc(OC4CCN(CCOC)CC4)nc4c(OCC(F)(F)F)c(-c5c(C)ccc6[nH]ncc56)c(C5CC5)cc34)CC2)C1 [Compound 1]													29.0%		39% regression	Inhibition rate (%) of pERK level [1]: +++ (+++ indicates an inhibition rate greater than 90%.); IC50 [2, 13]: < 300 nM; Cl ([3]; iv, 2 mg/kg): 2.33 mL/min/kg; Cmax ([3]; iv, 2 mg/kg): 2557 ng/mL; Tmax ([3]; iv, 2 mg/kg): 1 h; Vss ([3]; iv, 2 mg/kg): 0.782 L/kg; t1/2 ([3]; iv, 2 mg/kg): 4.31 h; Cmax [3, 14]: 1543 ng/mL; Tmax [3, 14]: 4 h; t1/2 [3, 14]: 6.94 h
C=C(F)C(=O)N1CC2(CCN(c3nc(OC4CCN(CCOC)CC4)nc4c(OCC)c(-c5c(C)ccc6[nH]ncc56)c(C5CC5)cc34)CC2)C1 [Compound 2]	< 300 nM													> 90%	23% regression	
C=Cc1cc2c(N3CCC4(CC3)CN(C(=O)C(=C)F)C4)nc(OC3CCN(CCOC)CC3)nc2c(OCC(F)(F)F)c1-c1c(C)ccc2[nH]ncc12 [Compound 5]	< 300 nM													> 90%	30% regression	

Now from value to compound, other results behind:

IC50 [2, 6]	IC50 ([2]; Homo sapiens, NCI-H358, 72 h)	AUC(0-t) [3, 7]	clearance [3, 7]	half-life [3, 7]	Cmax [3, 8]	Tmax [3, 9]	Vd [3, 7]	AUC(0-t) [3, 10]	half-life [3, 10]	Cmax [3, 11]	Tmax [3, 12]	F [3]	Structure (SMILES)	inhibition at 1 µM [1]	Anti-tumor effect (regression) [4]	other results
< 300 nM	1.5 nM	11300 ng·h/mL	1.87 mL/min/kg	4.12 h	2350 ng/mL	0.5 h	2.1 L/kg	22300 ng·h/mL	5.86 h	1820 ng/mL	2 h	39.4%	C=CC(=O)N1CC2(CCN(c3nc(OC4CC5(CCN(CCOC)CC5)C4)nc4c(OCC(F)(F)F)c(-c5c(C)ccc6[nH]ncc56)c(C5CC5)cc34)CC2)C1 [Compound 131]	> 90%	37% regression	
< 300 nM	2.5 nM	52000 ng·h/mL	0.642 mL/min/kg	3.31 h	13100 ng/mL	0.083 h	0.187 L/kg	46000 ng·h/mL	3.89 h	6730 ng/mL	2 h	17.7%	C=CC(=O)N1CC2(CCN(c3nc(N4CC(N5CCC5)C4)nc4c(OCC(F)(F)F)c(-c5c(C)ccc6[nH]ncc56)c(C5CC5)cc34)CC2)C1 [Compound 142]	> 90%	35% regression	inhibition of the phosphorylated ERK (pERK) level in cells compared with AMG510 and MRTX849 [5]: stronger inhibition
< 300 nM	1.4 nM	26500 ng·h/mL	1.26 mL/min/kg	4.85 h	4910 ng/mL	0.083 h	0.505 L/kg	35700 ng·h/mL	3.93 h	3320 ng/mL	2 h	26.9%	C=CC(=O)N1CC2(CCN(c3nc(N4CC(N5CCCC5)C4)nc4c(OCC(F)(F)F)c(-c5c(C)ccc6[nH]ncc56)c(C5CC5)cc34)CC2)C1 [Compound 171]	> 90%	38% regression	
												24.6%	C=CC(=O)N1CC2(CCN(c3nc(N4CC(N(C)C)C4)nc4c(OCC(F)(F)F)c(-c5c(C)ccc6[nH]ncc56)c(C=C)cc34)CC2)C1 [Compound C, reference compound]		8% regression	Inhibition rate (%) of pERK level [1]: +++ (+++ indicates an inhibition rate greater than 90%.); IC50 [2, 13]: < 300 nM; IC50 [2]: 5.1 nM; Cl ([3]; iv, 2 mg/kg): 1.65 mL/min/kg; Cmax ([3]; iv, 2 mg/kg): 3210 ng/mL; Tmax ([3]; iv, 2 mg/kg): 0.083 h; Vss ([3]; iv, 2 mg/kg): 0.481 L/kg; t1/2 ([3]; iv, 2 mg/kg): 4.02 h; Cmax [3, 14]: 3110 ng/mL; Tmax [3, 14]: 0.5 h; t1/2 [3, 14]: 3.38 h
